{
  "source": "patent US9827219B2",
  "about": "“Compositions and methods for lowering levels of high-sensitivity C-reactive protein (HS-CRP) in a subject” (priority 2012, dated 2017)",
  "type_in_all_cases": "in vivo, human",
  "key": {"ICAM-1 [1]": {"test_system": "ICAM-1", "experiment": "MARINE study (fasting TG ≧500 mg/dL), ICAM-1", "details": "MARINE ITT, week 12", "excerpt": "(§1) Parameters (a)-(y) can be measured in accordance with any clinically acceptable methodology. For example, triglycerides, total cholesterol, HDL-C and fasting blood sugar can be sample from serum and analyzed using standard photometry techniques. VLDL-TG, LDL-C and VLDL-C can be calculated or determined using serum lipoprotein fractionation by preparative ultracentrifugation and subsequent quantitative analysis by refractometry or by analytic ultracentrifugal methodology. Apo A1, Apo B and hsCRP can be determined from serum using standard nephelometry techniques. Lipoprotein (a) can be determined from serum using standard turbidimetric immunoassay techniques. LDL particle number and particle size can be determined using nuclear magnetic resonance (NMR) spectrometry. Remnants lipoproteins and LDL-phospholipase A2 can be determined from EDTA plasma or serum and serum, respectively, using enzymatic immunoseparation techniques. Oxidized LDL, intercellular adhesion molecule-1 and interleukin-2 levels can be determined from serum using standard enzyme immunoassay techniques. These techniques are described in detail in standard textbooks, for example Tietz Fundamentals of Clinical Chemistry, 6th Ed. (Burtis, Ashwood and Borter Eds.), WB Saunders Company. […]"}, "RLP-C": {"test_system": "RLP-C", "experiment": "RLP-C in patients with diabetes mellitus-2 (Example 2)", "details": "4 g/day, 12 weeks, on statin", "excerpt": "(§2) Parameters (a)-(y) can be measured in accordance with any clinically acceptable methodology. For example, triglycerides, total cholesterol, HDL-C and fasting blood sugar can be sample from serum and analyzed using standard photometry techniques. VLDL-TG, LDL-C and VLDL-C can be calculated or determined using serum lipoprotein fractionation by preparative ultracentrifugation and subsequent quantitative analysis by refractometry or by analytic ultracentrifugal methodology. Apo A1, Apo B and hsCRP can be determined from serum using standard nephelometry techniques. Lipoprotein (a) can be determined from serum using standard turbidimetric immunoassay techniques. LDL particle number and particle size can be determined using nuclear magnetic resonance (NMR) spectrometry. Remnants lipoproteins and LDL-phospholipase A2 can be determined from EDTA plasma or serum and serum, respectively, using enzymatic immunoseparation techniques. Oxidized LDL, intercellular adhesion molecule-1 and interleukin-2 levels can be determined from serum using standard enzyme immunoassay techniques. These techniques are described in detail in standard textbooks, for example Tietz Fundamentals of Clinical Chemistry, 6th Ed. (Burtis, Ashwood and Borter Eds.), WB Saunders Company.\nThe effect of >96% E-EPA on lipid and inflammatory parameters was evaluated in patients with fasting triglyceride levels ≧150 mg/dl and <499 mg/dl on concomitant statin therapy. Patients with diabetes mellitus-2 were randomized and treated with either 2 g/day >96% E-EPA, 4 g/day >96%, or placebo for twelve weeks. At the end of the treatment period, several diabetes efficacy endpoints were evaluated including, TG, LDL-C, non-HDL-C, VLDL-C, Lp-PLA2, Apo B, TC, HDL-C, VLDL-TG, hs-CRP, oxLDL, and RLP-C."}, "ICAM-1 [2]": {"test_system": "ICAM-1", "experiment": "ANCHOR study (fasting TG ≧200 and <500 mg/dl despite statin), ICAM-1", "details": "ANCHOR ITT, week 12", "excerpt": "as §2\nA multi-center, placebo-controlled, randomized, double-blind, 12-week study was performed to evaluate the efficacy and safety of >96% E-EPA in patients with fasting triglyceride levels ≧200 mg/dl and <500 mg/dl despite statin therapy (the mean of two qualifying entry values needed to be ≧185 mg/dl and at least one of the values needs to be ≧200 mg/dl). The primary objective of the study was to determine the efficacy of >96% E-EPA 2 g daily and 4 g daily, compared to placebo, in lowering fasting TG levels in patients with high risk for cardiovascular disease and with fasting TG levels ≧200 mg/dL and <500 mg/dL, despite treatment to LDL-C goal on statin therapy. […]"}, "Ox-LDL": {"test_system": "Ox-LDL", "experiment": "ANCHOR study, oxidized LDL", "details": "ANCHOR ITT, week 12", "excerpt": "as §1"}},
  "data": [
    {"compound": "CC/C=C\\C/C=C\\C/C=C\\C/C=C\\C/C=C\\CCCC(=O)OCC", "note": "[AMR101, all-cis eicosa-5,8,11,14,17-pentaenoic acid ethyl ester]", "values": [
      {"measurement": "ICAM-1 change from baseline (median)", "setting": "ICAM-1 [1]; 2 g/day", "value": "−0.4", "unit": "%"},
      {"measurement": "ICAM-1 change from baseline (median)", "setting": "ICAM-1 [1]; 4 g/day", "value": "−0.9", "unit": "%"},
      {"measurement": "Median placebo-adjusted percent change in RLP-C from baseline to study end", "setting": "RLP-C; less-controlled diabetes (HbA1c ≧ median of 6.8%)", "value": "−21.3", "unit": "%"},
      {"measurement": "Median placebo-adjusted percent change in RLP-C from baseline to study end", "setting": "RLP-C; total diabetes", "value": "−25.0", "unit": "%"},
      {"measurement": "Median placebo-adjusted percent change in RLP-C from baseline to study end", "setting": "RLP-C; well-controlled diabetes (HbA1c < median of 6.8%)", "value": "−26.7", "unit": "%"},
      {"measurement": "ICAM-1 change from baseline (median)", "setting": "ICAM-1 [2]; 2 g/day", "value": 0.5, "unit": "%"},
      {"measurement": "ICAM-1 change from baseline (median)", "setting": "ICAM-1 [2]; 4 g/day", "value": 0.8, "unit": "%"},
      {"measurement": "ICAM-1 end-of-treatment value (median)", "setting": "ICAM-1 [2]; 4 g/day", "value": 270.0, "unit": "ng/mL"},
      {"measurement": "Ox-LDL change from baseline (median)", "setting": "Ox-LDL; 2 g/day", "value": 2.6, "unit": "%"},
      {"measurement": "Ox-LDL change from baseline (median)", "setting": "Ox-LDL; 4 g/day", "value": "−4.8", "unit": "%"}
    ]}
  ]
}
